Data published in ChEMBL document CHEMBL1153171, “Coumarins as novel 17beta-hydroxysteroid dehydrogenase type 3 inhibitors for potential treatment of prostate cancer” (Bioorg Med Chem Lett, 2010).

Key:
[1] = target: T1, 17-beta-hydroxysteroid dehydrogenase type 3 (Homo sapiens, UniProt P37058); assay: Inhibition of human 17beta-HSD3 expressed in HeLa cells; assay type: cell-based
T1 sequence (P37058 whole entry): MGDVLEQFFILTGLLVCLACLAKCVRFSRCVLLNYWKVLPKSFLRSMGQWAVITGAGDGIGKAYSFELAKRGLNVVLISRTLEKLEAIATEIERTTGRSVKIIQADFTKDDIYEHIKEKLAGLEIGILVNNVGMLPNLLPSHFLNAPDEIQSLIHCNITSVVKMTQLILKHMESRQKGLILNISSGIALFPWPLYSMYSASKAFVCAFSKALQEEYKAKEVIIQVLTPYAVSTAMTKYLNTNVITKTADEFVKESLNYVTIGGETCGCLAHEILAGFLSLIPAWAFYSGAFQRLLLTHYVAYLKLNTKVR

Androgen receptor [2] = target: T2, Androgen receptor (Homo sapiens, UniProt P10275); assay: Antagonist activity at AR by reporter gene assay; assay type: functional
T2 sequence (P10275 whole entry): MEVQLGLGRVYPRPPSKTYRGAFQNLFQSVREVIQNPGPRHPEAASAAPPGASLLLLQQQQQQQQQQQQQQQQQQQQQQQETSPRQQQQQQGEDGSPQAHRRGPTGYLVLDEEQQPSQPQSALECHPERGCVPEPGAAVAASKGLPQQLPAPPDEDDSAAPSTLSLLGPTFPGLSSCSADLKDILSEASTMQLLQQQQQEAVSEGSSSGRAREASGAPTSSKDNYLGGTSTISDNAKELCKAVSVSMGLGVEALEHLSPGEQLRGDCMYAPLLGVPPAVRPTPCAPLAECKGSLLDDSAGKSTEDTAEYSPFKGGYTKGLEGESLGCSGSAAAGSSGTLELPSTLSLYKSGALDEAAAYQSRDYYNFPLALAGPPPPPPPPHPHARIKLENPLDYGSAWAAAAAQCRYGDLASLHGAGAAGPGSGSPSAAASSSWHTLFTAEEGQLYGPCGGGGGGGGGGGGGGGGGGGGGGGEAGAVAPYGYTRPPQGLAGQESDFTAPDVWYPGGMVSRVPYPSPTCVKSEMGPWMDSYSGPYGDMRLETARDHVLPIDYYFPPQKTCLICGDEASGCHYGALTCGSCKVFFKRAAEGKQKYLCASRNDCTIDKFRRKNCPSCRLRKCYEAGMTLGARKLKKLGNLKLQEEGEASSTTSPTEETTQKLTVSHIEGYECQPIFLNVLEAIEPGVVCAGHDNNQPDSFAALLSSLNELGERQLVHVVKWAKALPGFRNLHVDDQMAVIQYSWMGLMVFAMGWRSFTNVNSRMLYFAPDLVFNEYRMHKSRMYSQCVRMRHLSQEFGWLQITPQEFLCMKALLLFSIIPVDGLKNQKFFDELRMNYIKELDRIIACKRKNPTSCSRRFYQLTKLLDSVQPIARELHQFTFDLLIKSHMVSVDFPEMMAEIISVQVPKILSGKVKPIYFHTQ

Androgen receptor [3] = target: T2, Androgen receptor; assay: Agonist activity at AR by reporter gene assay; assay type: functional
Estrogen receptor [4] = target: T3, Estrogen receptor (Homo sapiens, UniProt P03372); assay: Antagonist activity at ER by reporter gene assay; assay type: functional
T3 sequence (P03372 whole entry): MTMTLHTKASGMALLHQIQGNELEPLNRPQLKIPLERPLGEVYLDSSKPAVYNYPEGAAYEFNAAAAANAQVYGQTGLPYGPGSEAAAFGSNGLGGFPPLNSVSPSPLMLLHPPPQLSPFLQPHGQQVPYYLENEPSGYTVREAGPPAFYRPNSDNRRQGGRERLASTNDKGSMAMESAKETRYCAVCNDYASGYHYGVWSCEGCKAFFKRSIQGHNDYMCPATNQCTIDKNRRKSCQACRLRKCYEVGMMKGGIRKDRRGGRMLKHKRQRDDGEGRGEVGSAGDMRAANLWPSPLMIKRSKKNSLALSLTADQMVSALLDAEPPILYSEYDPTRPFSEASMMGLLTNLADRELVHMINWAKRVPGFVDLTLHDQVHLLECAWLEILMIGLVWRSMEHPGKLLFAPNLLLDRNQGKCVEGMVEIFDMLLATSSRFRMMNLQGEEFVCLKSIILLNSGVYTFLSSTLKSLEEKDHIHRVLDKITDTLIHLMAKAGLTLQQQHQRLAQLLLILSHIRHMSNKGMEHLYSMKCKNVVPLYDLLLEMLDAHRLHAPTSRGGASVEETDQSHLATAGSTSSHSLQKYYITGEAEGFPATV

Estrogen receptor [5] = target: T3, Estrogen receptor; assay: Agonist activity at ER by reporter gene assay; assay type: functional
Glucocorticoid receptor [6] = target: T4, Glucocorticoid receptor (Homo sapiens, UniProt P04150); assay: Antagonist activity at GR by reporter gene assay; assay type: functional
T4 sequence (P04150 whole entry): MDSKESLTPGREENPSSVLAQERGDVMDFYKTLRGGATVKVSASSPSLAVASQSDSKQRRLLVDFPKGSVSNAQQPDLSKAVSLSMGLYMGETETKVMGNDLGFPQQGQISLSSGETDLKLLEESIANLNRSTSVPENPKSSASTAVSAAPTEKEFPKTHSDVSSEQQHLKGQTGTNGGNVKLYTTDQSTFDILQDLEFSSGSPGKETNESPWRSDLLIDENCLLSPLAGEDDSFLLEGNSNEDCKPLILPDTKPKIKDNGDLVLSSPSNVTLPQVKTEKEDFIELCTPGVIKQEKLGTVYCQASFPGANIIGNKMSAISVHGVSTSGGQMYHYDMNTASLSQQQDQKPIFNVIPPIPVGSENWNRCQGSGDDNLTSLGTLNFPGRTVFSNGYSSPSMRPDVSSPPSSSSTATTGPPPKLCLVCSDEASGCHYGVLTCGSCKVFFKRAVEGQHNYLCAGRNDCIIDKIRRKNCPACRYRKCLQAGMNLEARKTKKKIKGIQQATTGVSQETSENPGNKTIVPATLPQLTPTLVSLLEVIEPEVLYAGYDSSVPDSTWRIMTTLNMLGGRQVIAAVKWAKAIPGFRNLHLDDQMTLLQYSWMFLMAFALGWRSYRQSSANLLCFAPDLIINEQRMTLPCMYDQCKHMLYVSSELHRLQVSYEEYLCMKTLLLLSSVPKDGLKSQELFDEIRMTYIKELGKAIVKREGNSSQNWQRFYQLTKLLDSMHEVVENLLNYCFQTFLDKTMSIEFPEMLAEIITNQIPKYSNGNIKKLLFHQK

Glucocorticoid receptor [7] = target: T4, Glucocorticoid receptor; assay: Agonist activity at GR by reporter gene assay; assay type: functional
[8] = target: T5, 17-beta-hydroxysteroid dehydrogenase type 1 (Homo sapiens, UniProt P14061); assay: Inhibition of 17beta-HSD1 by human cell based assay
T5 sequence (P14061 whole entry): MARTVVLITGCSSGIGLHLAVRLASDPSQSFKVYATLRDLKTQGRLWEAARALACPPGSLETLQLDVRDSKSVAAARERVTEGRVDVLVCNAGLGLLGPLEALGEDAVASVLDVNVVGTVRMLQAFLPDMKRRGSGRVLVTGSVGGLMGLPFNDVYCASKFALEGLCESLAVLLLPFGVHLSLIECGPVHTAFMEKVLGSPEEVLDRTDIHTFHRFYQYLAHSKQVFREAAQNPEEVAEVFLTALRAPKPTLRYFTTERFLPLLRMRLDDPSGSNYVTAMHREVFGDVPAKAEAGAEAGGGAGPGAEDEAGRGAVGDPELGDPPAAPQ

[9] = target: T6, 17-beta-hydroxysteroid dehydrogenase type 2 (Homo sapiens, UniProt P37059); assay: Inhibition of 17beta-HSD2 by human cell based assay
T6 sequence (P37059 whole entry): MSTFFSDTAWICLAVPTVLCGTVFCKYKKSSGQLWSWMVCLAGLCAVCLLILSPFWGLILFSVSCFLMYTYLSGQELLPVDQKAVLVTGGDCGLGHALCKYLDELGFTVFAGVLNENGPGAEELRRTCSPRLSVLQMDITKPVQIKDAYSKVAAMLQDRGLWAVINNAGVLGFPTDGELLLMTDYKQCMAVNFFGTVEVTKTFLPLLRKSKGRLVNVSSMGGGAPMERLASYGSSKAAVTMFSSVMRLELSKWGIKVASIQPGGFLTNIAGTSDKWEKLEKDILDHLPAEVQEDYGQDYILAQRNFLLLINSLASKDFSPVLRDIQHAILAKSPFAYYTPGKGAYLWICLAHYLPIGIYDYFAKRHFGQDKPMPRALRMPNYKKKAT

SMILES | IC50 [1] [nM] | other results
O=c1cc(C(F)(F)F)c2ccc(O)cc2o1 | 190 | –
Cc1c(C)c2ccc(O)cc2oc1=O | 210 | –
O=c1cc(-c2ccccc2)c2ccc(O)cc2o1 | 1000 | –
O=c1cc(CSc2nncs2)c2ccc(O)cc2o1 | 200 | –
O=c1cc(CSc2nccs2)c2ccc(O)cc2o1 | 10 | –
Cc1cccc(SCc2cc(=O)oc3cc(O)ccc23)n1 | 1.5 | IC50 (Androgen receptor [2]; read-out: IC50): 50000 nM; IC50 (Androgen receptor [3]): Not Active; IC50 (Estrogen receptor [4]): Not Active; IC50 (Estrogen receptor [5]; read-out: IC50): 50000 nM; IC50 (Glucocorticoid receptor [6]): Not Active; IC50 (Glucocorticoid receptor [7]): Not Active; IC50 [8]: Not Active; IC50 [9]: Not Active
Cc1cccc(CCc2cc(=O)oc3cc(O)ccc23)n1 | 8 | IC50 (Androgen receptor [2]): Not Active; IC50 (Androgen receptor [3]): Not Active; IC50 (Estrogen receptor [4]): Not Active; IC50 (Estrogen receptor [5]): Not Active; IC50 (Glucocorticoid receptor [6]): Not Active; IC50 (Glucocorticoid receptor [7]): Not Active; IC50 [8]: Not Active; IC50 [9]: Not Active
Cc1c(Cl)c(=O)oc2cc(O)ccc12 | 100 | –
O=c1cc(CSc2ccccn2)c2ccc(O)cc2o1 | 3 | –
O=c1cc(CSc2ncccn2)c2ccc(O)cc2o1 | 1000 | –
O=c1cc(CSC2NCCS2)c2ccc(O)cc2o1 (stereo not given) | 96 | –
O=c1cc(CSc2ccc([N+](=O)[O-])cn2)c2ccc(O)cc2o1 | 88 | –
O=c1cc(CSc2ccc(C(F)(F)F)cn2)c2ccc(O)cc2o1 | 230 | –
Cc1cccc(SCc2c(F)c(=O)oc3cc(O)ccc23)n1 | 27 | –
Cc1cccc(SCc2c(Cl)c(=O)oc3cc(O)ccc23)n1 | 47 | –
O=c1oc2cc(O)ccc2c(C(F)(F)F)c1CSc1ccccn1 | 320 | –
CCCc1c(C)c2ccc(O)cc2oc1=O | 240 | –
Cc1c(Cc2ccccc2)c(=O)oc2cc(O)ccc12 | 200 | –

SMILES | IC50 [1] [nM] | other results
O=c1oc2cc(O)ccc2c(C(F)(F)F)c1Cc1ccccc1 | 30 | IC50 (Androgen receptor [2]; read-out: IC50): 6000 nM; IC50 (Androgen receptor [3]): Not Active; IC50 (Estrogen receptor [4]): Not Active; IC50 (Estrogen receptor [5]; read-out: IC50): 1000 nM; IC50 (Glucocorticoid receptor [6]): Not Active; IC50 (Glucocorticoid receptor [7]): Not Active; IC50 [8]: Not Active; IC50 [9]: Not Active
COCc1cc(=O)oc2cc(O)ccc12 | 5000 | –
O=c1cc(Cc2ccccc2)c2ccc(O)cc2o1 | 10000 | –
O=c1cc(CCc2ccccc2)c2ccc(O)cc2o1 | 20 | –
O=c1cc(COc2ccccc2)c2ccc(O)cc2o1 | 10000 | –
O=c1cc(CNc2ccccc2)c2ccc(O)cc2o1 | 4000 | –
O=c1cc(CSc2cccs2)c2ccc(O)cc2o1 | 420 | –
Cc1cc2ccc(O)cc2oc1=O | 1000 | –
Cc1c(C#N)c(=O)oc2cc(O)ccc12 | 1000 | –
Cc1cccc(OCCc2cc(=O)oc3cc(O)ccc23)n1 | 1000 | –
CCc1cc(=O)oc2cc(O)ccc12 | 100 | –
CN(Cc1cc(=O)oc2cc(O)ccc12)c1ccccc1 | 6000 | –
Cn1ccnc1SCc1cc(=O)oc2cc(O)ccc12 | 91 | –
O=c1cc(CSc2ccccc2)c2ccc(O)cc2o1 | 93 | –
CCCc1cc(=O)oc2cc(O)ccc12 | 59 | –
O=c1cc(CSc2ccncc2)c2ccc(O)cc2o1 | 5000 | –
Cc1c(F)c(=O)oc2cc(O)ccc12 | 1000 | –
Cc1cc(=O)oc2cc(O)ccc12 [HYMECROMONE] | 1000 | –
